Literature values, collected in patent US5635503A, “Dihydropyridine npy antagonists: piperazine derivatives” (Bristol-Myers Squibb Company, priority 1995, dated 1997).

Columns and labels:
Y2 receptor = target: T1, Y2 receptor (Rattus norvegicus, UniProt Q9ERC0); conditions: functional selectivity for the Y2 receptor
T1 sequence (Q9ERC0 1-381): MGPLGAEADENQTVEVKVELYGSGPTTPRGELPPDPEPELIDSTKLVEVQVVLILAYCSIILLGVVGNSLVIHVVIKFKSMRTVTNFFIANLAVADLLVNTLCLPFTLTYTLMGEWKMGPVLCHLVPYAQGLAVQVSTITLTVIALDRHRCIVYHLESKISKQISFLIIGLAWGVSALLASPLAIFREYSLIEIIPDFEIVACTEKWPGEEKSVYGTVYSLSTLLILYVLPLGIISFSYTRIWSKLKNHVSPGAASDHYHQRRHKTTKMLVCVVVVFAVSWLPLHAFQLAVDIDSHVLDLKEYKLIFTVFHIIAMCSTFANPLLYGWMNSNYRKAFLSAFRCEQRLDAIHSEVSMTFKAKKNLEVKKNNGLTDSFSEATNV

[1] = system: vasoconstrictive activity of the NPY1 agonist [Leu31, Pro34]NPY
[2] = system: NPY-related increases in diastolic blood pressure; conditions: anesthetized guinea pig model

| Compound | functional antagonism (rat femoral artery) | effect on the NPY2 agonist NPY13-36 (Y2 receptor) | effect on vasoconstrictive activity of the NPY1 agonist [Leu31, Pro34]NPY [1] | antagonism of NPY-related increases in diastolic blood pressure [2] |
| --- | --- | --- | --- | --- |
| N=C(N)N(CCCCCCNCc1ccc2ccccc2c1)CCCCCCN(CCCCCCNCc1ccc2ccccc2c1)C(=N)N [Example 6b] | display functional antagonism | antagonized the effect | had no effect |  |
| CN(C)CC1CCC(CNC(=N)c2ccc(CC(NC(=O)C(Cc3ccccc3)NS(=O)(=O)c3ccc4ccccc4c3)C(=O)N3CCCC3)cc2)CC1 (stereo not shown) [SR 120819A] |  |  |  | antagonized |
